{"source": "patent US20240315991A1", "about": "“USES OF HNF4 ALPHA AGONISTS” (Sanford Burnham Prebys Medical Discovery Institute, priority 2023, published 2024)", "key": {"HNF4α": {"target": "T1, HNF4α (Mus musculus, UniProt P49698)", "T1 construct": "from tissue; host or cells: liver of C57BL/6J mice", "T1 sequence (P49698 whole entry)": "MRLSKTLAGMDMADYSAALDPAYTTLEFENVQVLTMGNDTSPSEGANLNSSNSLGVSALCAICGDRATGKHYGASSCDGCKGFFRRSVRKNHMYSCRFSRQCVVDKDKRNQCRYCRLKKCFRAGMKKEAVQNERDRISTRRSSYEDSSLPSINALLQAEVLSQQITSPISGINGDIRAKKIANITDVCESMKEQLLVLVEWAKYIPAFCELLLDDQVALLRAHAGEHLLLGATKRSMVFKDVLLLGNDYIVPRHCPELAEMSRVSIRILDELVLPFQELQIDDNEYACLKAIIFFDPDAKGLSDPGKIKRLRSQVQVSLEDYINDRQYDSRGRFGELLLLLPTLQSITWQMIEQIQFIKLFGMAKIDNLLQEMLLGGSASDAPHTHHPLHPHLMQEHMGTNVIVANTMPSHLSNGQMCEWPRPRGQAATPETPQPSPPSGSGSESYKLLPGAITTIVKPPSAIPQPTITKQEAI", "experiment": "HNF4α immunofluorescence of liver sections", "type": "in vivo", "settings": "C57BL/6 mice, HFD containing 4000 ppm NCT (approximately 400 mg/kg/d), oral, 10 weeks, vs HFD", "procedure": "NCT oral administration. Four-week-old male C57BL/6J (JAX cat #000664) mice were purchased from Jackson laboratory and were maintained in a 12 h light/dark cycle throughout the experiment. Prior to the experiments, mice were acclimated for 2 weeks. Six-week-old mice with similar body weights were randomized to a normal diet (NC), a high fat diet (HFD) (Research Diets, cat #D12492 60 kcal % fat) or HFD containing 4000 ppm NCT (HFD+NCT) (Research Diets, 60 kcal % fat+4000 ppm NCT), which was calculated to provide approximately 400 mg/kg/d NCT. HFD chow containing NCT was made with gray dye to distinguish it from regular HFD chow that had green dye. Mice for each treatment group were placed in separate cages. […] Body weight gain and food intake were measured every week for 10 weeks. […]\nImmunofluorescence. […] Slides were mounted using fluorescence mounting medium and images were obtained at ×40 magnification using an Olympus IX71 fluorescence microscope. Fluorescence intensity of HNF4α-stained nuclei and VDAC stained mitochondria was calculated using MetaMorph TL software (version 7.6.5.0, Olympus). Fold change was calculated by normalizing to values from mice fed NC.\nC57BL/6 mice were fed normal chow (NC), a high fat diet (HFD), or a high fat diet containing 4000 ppm NCT (HFD+NCT) for 10 weeks. […] The fold change was calculated vs. NC (NC, N=3, HFD and HFD+NCT, N=12). […]"}, "PPARGC1A mRNA": {"system": "PPARGC1A mRNA", "experiment": "RT-PCR of mouse liver, PPARGC1A", "type": "in vivo", "settings": "HFD+NCT vs HFD, FIGS. 4A-4C", "procedure": "(§1) NCT oral administration. Four-week-old male C57BL/6J (JAX cat #000664) mice were purchased from Jackson laboratory and were maintained in a 12 h light/dark cycle throughout the experiment. Prior to the experiments, mice were acclimated for 2 weeks. Six-week-old mice with similar body weights were randomized to a normal diet (NC), a high fat diet (HFD) (Research Diets, cat #D12492 60 kcal % fat) or HFD containing 4000 ppm NCT (HFD+NCT) (Research Diets, 60 kcal % fat+4000 ppm NCT), which was calculated to provide approximately 400 mg/kg/d NCT. HFD chow containing NCT was made with gray dye to distinguish it from regular HFD chow that had green dye. Mice for each treatment group were placed in separate cages. Equal amounts of fresh chow were provided every week to all mice. Body weight gain and food intake were measured every week for 10 weeks. After 10 weeks of chow treatment, mice were sacrificed for analysis. […]\n(§2) RT-PCR. […] Quantitative real time PCR (RT-PCR) analysis was performed using SYBR® Select Master Mix (Applied Biosystems) and an ABI 7900HT thermal cycler (Applied Biosystems, Thermo Fisher Scientific). Ct values were normalized to 18s rRNA and are expressed as fold change over samples from mice fed NC or cultured human hepatocytes without NCT."}, "Sirt3 mRNA [1]": {"system": "Sirt3 mRNA", "experiment": "RT-PCR of mouse liver, Sirtuin3", "type": "in vivo", "settings": "HFD+NCT vs HFD, FIG. 4E", "procedure": "as §1, §2"}, "nitric oxide (NO)": {"system": "nitric oxide (NO)", "experiment": "Nitric oxide assay in mouse liver", "type": "in vivo", "settings": "HFD+NCT vs HFD, FIG. 5G", "procedure": "as §1\nT6PNE cells were maintained in RPMI (5.5 mM glucose, Corning) supplemented with 10% fetal bovine serum (FBS, Sigma-Aldrich) and 1% penicillin-streptomycin (pen-strep, Gibco) in 5% CO2 at 37° C. […] NO was measured with the QuantiChrom Nitric Oxide Assay kit (D2NO-100, BioAssay Systems). […] Samples and standard from kit were incubated with reagents for 20 min at 60° C. and measured OD 540 nm."}, "Sirt3 mRNA [2]": {"system": "Sirt3 mRNA", "experiment": "RT-PCR of primary human hepatocytes, Sirtuin3", "type": "cell-based", "settings": "HEP-fat media, NCT 5, 15, and 40 μM, FIG. 4H", "procedure": "Primary human hepatocytes. Experiments with primary human hepatocytes were performed by CN-Bio (Cambridge, UK). Briefly, primary human hepatocytes (PHHs), human Kupffer cells (HKs) and human stellate cells (HSCs) were seeded onto CN-Bio's PhysioMimix LC12 MPS culture plates at 6×10^5 cells for PHHs and 6×10^4 cells for HKs and HSCs in 1.6 ml of CN-Bio's HEP-lean media with 5% FCS. Throughout the experiment the cells were maintained at a flow rate of 1 μl/s. After 24 hours (Day 1) of seeding, the media was changed to HEP-lean media and the cells were incubated until day 4 to allow the cells to form microtissues. At day 4 post seeding, media was changed to HEP-fat media and treated with DMSO or NCT (5, 15, and 40 μM). Media was replaced on days 6 and 8. Cells were harvested on day 10 for RNA extraction and culture media was collected for ELISA analysis.\nas §2"}}, "data": [{"smiles": "O=C(/C=C/c1ccc(O)c(O)c1)NCCc1ccc(O)cc1", "note": "[NCT, N-trans caffeoyltyramine]", "values": [{"measurement": "HNF4α expression in liver (HNF4α fluorescence intensity)", "setting": "HNF4α", "value": "reversed"}, {"measurement": "PPARGC1A(PGC1a) mRNA level in mouse liver", "setting": "PPARGC1A mRNA", "value": "increase"}, {"measurement": "Sirt3 mRNA in mouse liver", "setting": "Sirt3 mRNA [1]", "value": "reverse the depression"}, {"measurement": "level of NO in the livers of mice fed on HFD", "setting": "nitric oxide (NO)", "value": "decrease"}, {"measurement": "Sirt3 mRNA in primary human hepatocytes", "setting": "Sirt3 mRNA [2]", "value": "reverse the depression"}]}]}
